{"source": "PubChem BioAssay AID391", "about": "(SGCOxCompounds, 2006)"}
{"target": "Serine/threonine-protein kinase PAK 6 (Homo sapiens) (UniProt Q9NQU5)", "sequence (Q9NQU5 whole entry, looked up)": "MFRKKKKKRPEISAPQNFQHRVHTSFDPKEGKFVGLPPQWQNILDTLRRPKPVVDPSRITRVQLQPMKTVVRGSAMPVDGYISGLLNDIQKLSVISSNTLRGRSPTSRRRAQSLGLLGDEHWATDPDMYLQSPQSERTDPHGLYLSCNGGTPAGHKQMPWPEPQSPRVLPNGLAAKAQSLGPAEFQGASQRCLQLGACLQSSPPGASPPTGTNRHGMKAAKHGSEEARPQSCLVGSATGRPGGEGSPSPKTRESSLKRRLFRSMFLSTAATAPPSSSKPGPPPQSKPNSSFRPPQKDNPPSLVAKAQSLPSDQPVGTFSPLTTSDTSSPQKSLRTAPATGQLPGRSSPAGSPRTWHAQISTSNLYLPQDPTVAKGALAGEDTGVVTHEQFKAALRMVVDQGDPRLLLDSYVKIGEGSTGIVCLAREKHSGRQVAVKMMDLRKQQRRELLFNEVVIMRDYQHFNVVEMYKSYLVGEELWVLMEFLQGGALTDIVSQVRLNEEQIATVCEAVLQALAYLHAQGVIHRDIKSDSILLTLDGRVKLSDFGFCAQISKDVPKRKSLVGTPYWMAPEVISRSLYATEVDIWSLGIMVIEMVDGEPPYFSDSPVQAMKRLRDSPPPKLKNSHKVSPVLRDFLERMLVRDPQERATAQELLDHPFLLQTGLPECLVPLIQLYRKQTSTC", "experiment": "ligand-induced stabilization of human PAK6 kinase – biophysical, DSF, SYPRO orange, recombinant protein (AID 391)", "settings": "recombinant PAK6, DSF thermal shift, at 10 µM, protein 2 µM, buffer 10 mM HEPES, pH 7.5, NaCl 150 mM, run set 1, hits give high values", "units": {"Tm shift": "Celsius"}}
{"compound": "O=Nc1c(-c2c(O)[nH]c3ccc(S(O)(O)O)cc23)[nH]c2ccccc12", "Tm shift": 3.24}
{"compound": "O=C1Cc2c([nH]c3ccc(N(O)O)cc23)-c2ccccc2N1", "Tm shift": 3.92}
{"compound": "N=C(N)SCCCn1cc(C2=C(c3c[nH]c4ccccc34)C(=O)NC2=O)c2ccccc21", "Tm shift": 3.13}
{"compound": "O=C1NC(=O)c2c1c1c3ccccc3n3c1c1c2c2ccccc2n1[C@@H]1CCC3O1", "Tm shift": 6.44}
{"compound": "NCCCn1cc(C2=C(c3c[nH]c4ccccc34)C(=O)NC2=O)c2ccccc21", "Tm shift": 4.48}
{"compound": "CC(C)C(CO)Nc1nc(Nc2cccc(Cl)c2)c2ncn(C(C)C)c2n1", "note": "(centres undefined)", "Tm shift": 5.88}
{"compound": "NC(=O)Nc1sc(-c2ccccc2)cc1C(N)=O", "Tm shift": 3.43}
{"compound": "CC(C)n1cnc2c(Nc3cccc(Cl)c3)nc(NCCO)nc21", "Tm shift": 4.44}
{"target": "Serine/threonine-protein kinase PAK 6 (Homo sapiens) (UniProt Q9NQU5)", "experiment": "ligand-induced stabilization of human PAK6 kinase – biophysical, DSF, SYPRO orange, recombinant protein (AID 391)", "settings": "recombinant PAK6, DSF thermal shift, at 10 µM, protein 2 µM, buffer 10 mM HEPES, pH 7.5, NaCl 150 mM, run set 2, hits give high values", "units": {"Tm shift": "Celsius"}}
{"compound": "Clc1ccc(-c2cnc3ccc(NC4CCOCC4)nn23)cc1", "Tm shift": 3.5}
{"compound": "NC(=O)c1ccc(-c2nc(-c3ccc4c(c3)OCCO4)c(-c3ccccn3)[nH]2)cc1", "Tm shift": 4.8}
{"compound": "O=Nc1c(-c2c(O)[nH]c3cc(Br)ccc23)[nH]c2ccccc12", "Tm shift": 3.4}
{"compound": "Nc1nc(Nc2ccc(S(N)(=O)=O)cc2)nn1C(=S)Nc1c(F)cccc1F", "Tm shift": 5.64}
{"compound": "Cc1cc(Nc2nc(-c3ccccc3)nc3ccccc23)n[nH]1", "Tm shift": 5.45}
{"compound": "CC(O)(O)C1(O)C[C@@H]2O[C@@]1(C)n1c3ccccc3c3c4c(c5c6ccccc6n2c5c31)C(=O)NC4", "note": "(some centres undefined)", "Tm shift": 7.7}
{"compound": "CCn1cnc2c(Nc3cccc(Cl)c3)nc(N[C@@H]3CCCC[C@@H]3N)nc21", "Tm shift": 7}
{"compound": "NCCNc1ncc(C(N)=O)c(Nc2cccc(C(F)(F)F)c2)n1", "Tm shift": 5.21}
{"compound": "N#Cc1ccc(-c2cnc3ccc(NC4CCOCC4)nn23)cc1", "Tm shift": 3.3}
{"compound": "OCC(O)CCO/N=C1/C(c2c(O)[nH]c3ccccc23)=Nc2ccccc21", "note": "(centres undefined)", "Tm shift": 3.3}
{"compound": "Cn1cc(/C=C2\\C(=O)Nc3ccc(S(N)(=O)=O)cc32)c2ccccc21", "Tm shift": 4.26}
{"compound": "O=Nc1c(-c2c(O)[nH]c3ccccc23)[nH]c2ccccc12", "Tm shift": 8.7}
{"compound": "CCN(CC)CCNC(=O)c1c(C)[nH]c(/C=C2\\C(=O)Nc3ccc(Cl)cc32)c1C", "Tm shift": 3.8}
{"compound": "O=C1NCc2c1c1c3ccccc3[nH]c1c1[nH]c3ccccc3c21", "Tm shift": 3.1}
{"compound": "CC(C)n1cnc2c(Nc3cccc(Cl)c3)nc(NCCO)nc21", "Tm shift": 3.2}
{"compound": "O=C1Cc2c([nH]c3ccc(Br)cc23)-c2ccccc2N1", "Tm shift": 3.2}
